Measured values from the supplement of paper PMC11061612.

Experiments:
Assay in all cases: Bliss excess, mean over the matrix (fraction); higher = more synergy
[1] = system: 22RV1 (Prostate Carcinoma)
Summary of the method: (§1)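 After 24 hours at 37°C and 5% CO2 in 1536-well plates, cells in DMEM/F12 or RPMI plus 10% FBS received two-drug dose matrices for 72 hours. Viability came from CellTiter-Glo 2.0 luminescence and was scaled as inhibition, anchored at 0 by vehicle wells and at 1 by blank wells. Combination Emax is taken as the second-highest inhibition in the matrix, and Bliss excess as the observed combination effect less EA + EB − EA·EB, with EA and EB the single-agent effects.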

769-P (Kidney Carcinoma) = system: 769-P (Kidney Carcinoma)
Summary of the method: as §1

[2] = system: CAL-27 (Oral Cavity Carcinoma)
Summary of the method: as §1

[3] = system: CESS (Acute Myeloid Leukemia)
Summary of the method: as §1

[4] = system: DMS-53 (Small Cell Lung Carcinoma)
Summary of the method: as §1

EB2 (Burkitt's Lymphoma) = system: EB2 (Burkitt's Lymphoma)
Summary of the method: as §1

[5] = system: GCT (Other Solid Carcinomas)
Summary of the method: as §1

[6] = system: HCC1395 (Breast Carcinoma)
Summary of the method: as §1

[7] = system: HCC1428 (Breast Carcinoma)
Summary of the method: as §1

HCC70 (Breast Carcinoma) = system: HCC70 (Breast Carcinoma)
Summary of the method: as §1

[8] = system: HT55 (Colorectal Carcinoma)
Summary of the method: as §1

IM-9 (Non-Cancerous) = system: IM-9 (Non-Cancerous)
Summary of the method: as §1

[9] = system: JIMT-1 (Breast Carcinoma)
Summary of the method: as §1

[10] = system: JVM-2 (B-Cell Non-Hodgkin's Lymphoma)
Summary of the method: as §1

[11] = system: Jurkat (T-Lymphoblastic Leukemia)
Summary of the method: as §1

KP-N-YN (Neuroblastoma) = system: KP-N-YN (Neuroblastoma)
Summary of the method: as §1

[12] = system: KYSE-140 (Esophageal Squamous Cell Carcinoma)
Summary of the method: as §1

[13] = system: MDA-MB-436 (Breast Carcinoma)
Summary of the method: as §1

[14] = system: OACp4C (Esophageal Adenocarcinoma)
Summary of the method: as §1

[15] = system: SK-HEP-1 (Hepatocellular Carcinoma)
Summary of the method: as §1

| SMILES | Bliss excess [1] | Bliss excess (769-P (Kidney Carcinoma)) | Bliss excess [2] | Bliss excess [3] | Bliss excess [4] | Bliss excess (EB2 (Burkitt's Lymphoma)) | Bliss excess [5] | Bliss excess [6] | Bliss excess [7] | Bliss excess (HCC70 (Breast Carcinoma)) | Bliss excess [8] | Bliss excess (IM-9 (Non-Cancerous)) | Bliss excess [9] | Bliss excess [10] | Bliss excess [11] | Bliss excess (KP-N-YN (Neuroblastoma)) | Bliss excess [12] | Bliss excess [13] | Bliss excess [14] | Bliss excess [15] |
| --- | --- | --- | --- | --- | --- | --- | --- | --- | --- | --- | --- | --- | --- | --- | --- | --- | --- | --- | --- | --- |
| CN(C)CCCOc1ccc(-c2ccc3ncc4c(c3c2)n(C2CCOCC2)c(=O)n4C)cn1 [AZD0156] + C=CCn1c(=O)c2cnc(Nc3ccc(N4CCN(C)CC4)cc3)nc2n1-c1cccc(C(C)(C)O)n1 [AZD1775] (first compound max 1 µM, partner max 1 µM) | -0.095 | -0.0025 | -0.0539 | -0.0059 | -0.028 | -0.0322 | -0.0811 | -0.0648 | -0.115 | -0.0682 | -0.0671 | 0.007 | -0.0287 | -0.0372 | 0.0794 | -0.0161 | -0.0031 | -0.0623 | -0.0245 | -0.0574 |
| CN(C)CCCOc1ccc(-c2ccc3ncc4c(c3c2)n(C2CCOCC2)c(=O)n4C)cn1 [AZD0156] + CCN(CCO)CCCOc1ccc2c(Nc3cc(CC(=O)Nc4cccc(F)c4)[nH]n3)ncnc2c1 [AZD2811] (first compound max 1 µM, 7x7, partner max 1 µM) | -0.0279 | -0.0343 | -0.0054 | 0.0178 | -0.0251 | -0.0245 | -0.0126 | -0.0936 | -0.06 | -0.0184 | 0.0091 | -0.0416 | -0.0181 | 0.0105 | 0.0543 | 0.0037 | 0.025 | -0.0539 | 0.0091 | -0.0194 |
| CN(C)CCCOc1ccc(-c2ccc3ncc4c(c3c2)n(C2CCOCC2)c(=O)n4C)cn1 [AZD0156] + C[C@@H]1COCCN1C2=NC(=NC(=C2)C3(CC3)[S@](=N)(=O)C)C4=C5C=CNC5=NC=C4 [AZD6738] (first compound max 1 µM, 7x7, partner max 10 µM) | -0.0678 | 0.0253 | 0.0433 | 0.0386 | -0.0249 | -0.0562 | 0.0062 | -0.0245 | -0.0541 | -0.0103 | -0.0042 | 0.05 | 0.0042 | 0.0025 | 0.1 | 0.0249 | 0.0481 | -0.0396 | 0.0169 | -0.0034 |
| C=CCn1c(=O)c2cnc(Nc3ccc(N4CCN(C)CC4)cc3)nc2n1-c1cccc(C(C)(C)O)n1 [AZD1775] + C[C@@H]1COCCN1C2=NC(=NC(=C2)C3(CC3)[S@](=N)(=O)C)C4=C5C=CNC5=NC=C4 [AZD6738] (first compound max 1 µM, partner max 10 µM) | -0.0536 | 0.0092 | 0.0428 | 0.0388 | 0.0115 | 0.0589 | 0.0157 | 0.0091 | 0.0035 | -0.0312 | 0.0434 | 0.0274 | -0.01 | 0.0203 | 0.038 | -0.005 | 0.0259 | 0.0143 | -0.028 | -0.0271 |
| CCN(CCO)CCCOc1ccc2c(Nc3cc(CC(=O)Nc4cccc(F)c4)[nH]n3)ncnc2c1 [AZD2811] + C=CCn1c(=O)c2cnc(Nc3ccc(N4CCN(C)CC4)cc3)nc2n1-c1cccc(C(C)(C)O)n1 [AZD1775] (first compound max 1 µM, partner max 1 µM) | -0.0367 | -0.0267 | 0.0013 | 0.0173 | -0.0378 | -0.0165 | -0.0211 | -0.0904 | -0.0478 | -0.0112 | 0.0302 | -0.0297 | -0.0159 | 0.0686 | 0.0809 | -0.027 | -0.0155 | -0.0158 | -0.0436 | 0.0336 |
| CCN(CCO)CCCOc1ccc2c(Nc3cc(CC(=O)Nc4cccc(F)c4)[nH]n3)ncnc2c1 [AZD2811] + C[C@@H]1COCCN1C2=NC(=NC(=C2)C3(CC3)[S@](=N)(=O)C)C4=C5C=CNC5=NC=C4 [AZD6738] (first compound max 1 µM, 7x7, partner max 10 µM) | -0.103 | -0.0107 | -0.0452 | -0.0259 | -0.0357 | 0.0038 | -0.0318 | -0.0579 | -0.0369 | -0.131 | -0.0227 | -0.0441 | -0.0203 | -0.0809 | 0.0336 | -0.0751 | 0.0008 | -0.0469 | 0 | -0.0397 |
| CCN(CCO)CCCOc1ccc2c(Nc3cc(CC(=O)Nc4cccc(F)c4)[nH]n3)ncnc2c1 [AZD2811] + O=C(c1cc(Cc2n[nH]c(=O)c3ccccc23)ccc1F)N1CCN(C(=O)C2CC2)CC1 [Olaparib] (first compound max 1 µM, 7x7, partner max 10 µM) | 0.0017 | -0.018 | 0.0484 | 0.0591 | -0.014 | 0.0141 | 0.0585 | -0.0546 | -0.0081 | -0.0249 | 0.0248 | -0.0191 | -0.0127 | -0.125 | 0.0634 | 0.0058 | 0.0429 | -0.0533 | -0.0304 | -0.0121 |
| CN(CCO)CC[C@H](CSc1ccccc1)Nc1ccc(S(=O)(=O)NC(=O)c2ccc(N3CCC([C@@H](O)c4ccccc4-c4ccc(Cl)cc4)CC3)cc2)cc1S(=O)(=O)C(F)(F)F [AZD4320] + CN(C)CCCOc1ccc(-c2ccc3ncc4c(c3c2)n(C2CCOCC2)c(=O)n4C)cn1 [AZD0156] (first compound max 1 µM, 7x7, partner max 1 µM) | -0.0416 | -0.0444 | -0.0136 | -0.0814 | 0.0316 | -0.0028 | -0.0401 | -0.0269 | 0.0307 | -0.0321 | -0.0158 | -0.0621 | -0.0344 | 0.0248 | -0.0012 | -0.0064 | -0.0257 | -0.0496 | -0.0257 | 0.0146 |
| COc1nnc2ccc(N3CCC(c4ccc(OCCN5CCN(C)C(=O)[C@H]5C)cc4)CC3)nn12 [AZD5153] + C=CCn1c(=O)c2cnc(Nc3ccc(N4CCN(C)CC4)cc3)nc2n1-c1cccc(C(C)(C)O)n1 [AZD1775] (first compound max 1 µM, partner max 1 µM) | 0.0047 | -0.0321 | -0.0481 | -0.0643 | 0.0269 | -0.135 | 0.0168 | -0.113 | -0.0221 | -0.0339 | -0.0112 | -0.107 | -0.0054 | -0.0959 | -0.0038 | -0.135 | -0.0161 | -0.0783 | -0.0295 | -0.0166 |
| COc1nnc2ccc(N3CCC(c4ccc(OCCN5CCN(C)C(=O)[C@H]5C)cc4)CC3)nn12 [AZD5153] + CC1(C)CCC(CN2CCN(c3ccc(C(=O)NS(=O)(=O)c4ccc(NCC5CCOCC5)c([N+](=O)[O-])c4)c(Oc4cnc5[nH]ccc5c4)c3)CC2)=C(c2ccc(Cl)cc2)C1 [Venetoclax] (first compound max 1 µM, 7x7, partner max 1 µM) | -0.0308 | -0.0457 | -0.0394 | -0.0713 | -0.0406 | -0.0677 | -0.107 | -0.0241 | -0.0592 | -0.0013 | -0.0387 | 0.0394 | -0.0629 | -0.0081 | -0.0444 | -0.0809 | -0.0597 | -0.0572 | -0.0242 | -0.0153 |
| COc1nnc2ccc(N3CCC(c4ccc(OCCN5CCN(C)C(=O)[C@H]5C)cc4)CC3)nn12 [AZD5153] + CCN(CCO)CCCOc1ccc2c(Nc3cc(CC(=O)Nc4cccc(F)c4)[nH]n3)ncnc2c1 [AZD2811] (first compound max 1 µM, 7x7, partner max 1 µM) | -0.0252 | -0.0217 | -0.127 | 0.0259 | 0.0175 | -0.102 | -0.0201 | -0.0005 | -0.0173 | -0.0734 | -0.0479 | -0.111 | -0.0113 | -0.0498 | 0.0305 | -0.0355 | -0.0087 | -0.0214 | -0.062 | -0.103 |
| COc1nnc2ccc(N3CCC(c4ccc(OCCN5CCN(C)C(=O)[C@H]5C)cc4)CC3)nn12 [AZD5153] + C[C@@H]1COCCN1C2=NC(=NC(=C2)C3(CC3)[S@](=N)(=O)C)C4=C5C=CNC5=NC=C4 [AZD6738] (first compound max 1 µM, 7x7, partner max 10 µM) | -0.0019 | 0.0196 | 0.0095 | -0.0554 | 0.037 | -0.0996 | 0.029 | -0.0241 | 0.0209 | 0.015 | 0.0392 | -0.0697 | 0.0465 | -0.061 | 0.0601 | -0.0174 | -0.0968 | -0.0104 | 0.0085 | -0.0522 |
| COc1nnc2ccc(N3CCC(c4ccc(OCCN5CCN(C)C(=O)[C@H]5C)cc4)CC3)nn12 [AZD5153] + Cc1c2c(nn1C)CSCc1cc(n(C)n1)CSc1cc(c3ccccc3c1)OCCCc1c(C(=O)O)n(C)c3c-2c(Cl)ccc13 [AZD5991] (first compound max 1 µM, 7x7, partner max 1 µM) | 0.0107 | -0.0716 | -0.056 | -0.0124 | 0.007 | -0.0614 | -0.0425 | -0.0112 | -0.0587 | 0.0638 | -0.0445 | -0.127 | 0.0155 | -0.0404 | 0.0006 | -0.0362 | -0.124 | -0.0167 | 0.0438 | -0.085 |
| COc1nnc2ccc(N3CCC(c4ccc(OCCN5CCN(C)C(=O)[C@H]5C)cc4)CC3)nn12 [AZD5153] + Cn1cnc2c(F)c(Nc3ccc(Br)cc3Cl)c(C(=O)NOCCO)cc21 [Selumetinib] (first compound max 1 µM, 7x7, partner max 10 µM) | 0.0239 | -0.0261 | -0.0093 | -0.0651 | -0.0043 | -0.0216 | -0.0506 | -0.024 | 0.0137 | 0.0982 | 0.0584 | 0.0322 | -0.0082 | 0.0655 | -0.0326 | -0.0967 | -0.028 | -0.0275 | 0.101 | -0.0764 |
